Data: US20200383331A1, “COMPOSITIONS AND METHODS FOR LARGE-SCALE IN VITRO PLANT BIOCULTURE” (BOOSHOOT, LLC, priority 2017, published 2020)

Test system: Pistacia atlantica x P. intergerrina plants
Assay: In vitro initiation and multiplication of pistachio on solid medium
Format: cell-based
Experimental: Fully developed pistachio plants were cut into single-node explants, shoot tips, basal (bottom) parts of plants with multiple buds, and cultured on different agar-solidified culture media under standard tissue culture conditions (16 h light photoperiod, cool white fluorescent lights at 80-100 μmol/m^2/s light intensity, 24° C.).
Culture vessels (baby food jars) with ventilated lids are used in all experiments: 1-3 explants per 1 vessel, 12 vessels per each experimental medium, 40 ml of medium in each vessel. The explants are subcultured every 30 days, photographed every week, and observed daily.
The culture media differed in composition of major macronutrients (e.g., MS vs. WPM vs. DKW), individual elements (calcium, magnesium, phosphorus, zinc copper, boron, etc.), as well as in type and concentration of plant growth regulators (PGRs).
The compositions of these media are presented in FIG. 38, and their key advantages are based on data presented below.
Because the type and dosage of PGRs are usually the key factors controlling the morphogenetic response of plant cells in vitro, the main work was focused on testing various concentrations of cytokinins or cytokinin-like compounds (TDZ, 2iP, BA, meta-Topolin, ZR), alone or in combination with auxins (NAA, IAA, IBA), to induce organogenesis and high frequency multiplication in Pistacia atlantica x P. intergerrina. In the absence of PGRs (i.e., on hormone-free media), the plant growth was very poor and the culture gradually died within several weeks. In contrast, the culture media with 1-3 mg/l meta-Topolin, alone or in combination with 0.02-1 mg/l NAA or IBA, provided the highest rate of shoot organogenesis with the fastest response: each explant formed multiple meristematic buds, and the first axillary shoots appeared as early as 3 days after the explants were placed on the media. […] The multiplication rate of pistachio plants cultured on BOO3, BOO6, BOO4, and BOO7 media was 2-7 times every 30 days. […]

[1] = 1-3 mg/l meta-Topolin, alone or in combination with 0.02-1 mg/l NAA or IBA

Compound	shoot development from dormant buds of plant bases (2 mg/l of GA3 added into the media)	first axillary shoots appeared after the explants were placed on the media [1] [days]	rate of shoot organogenesis [1]
C=C1C[C@]23C[C@@]1(O)CC[C@H]2[C@@]12C=C[C@H](O)[C@@](C)(C(=O)O1)[C@H]2[C@@H]3C(=O)O [GA3, gibberellic acid]	induced shoot development	–	–
Oc1cccc(CNc2ncnc3[nH]cnc23)c1 [meta-Topolin, 6-(3-hydroxybenzylamino)-purine]	–	≥ 3	highest
